Where “and” joins values, the source holds several entries; their conditions need not be identical. Identical values can stand only once. Peptide text beside a SMILES is read from it.
Tests used:
Type in all cases: cell-based
HIV-1 NL 4-3 [1] = experiment: HIV-1 infection of C8166 cells (syncytia formation, p24 ELISA) with HIV-1 NL 4-3; set-up: key to syncitia formed, Day 4 / syncitia formed, Day 5 / syncitia formed, Day 6 / syncitia formed, Day 7: ++, +, (+), (+)− and − represent decreasing numbers of syncitia formed; ++, +, (+), (+)− and − represent decreasing numbers of syncitia formed; ++, +, (+), (+)− and − represent decreasing numbers of syncitia formed; ++, +, (+), (+)− and − represent decreasing numbers of syncitia formed; ++, +, (+), (+)− and − represent decreasing numbers of syncitia formed
Summary of the method: (§1)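 Infection was read out as syncytia and as cell-free p24 in supernatants (ELISA) from C8166 cells that received HIV-1 (1000 TCID50/ml, 1 h, 37 °C) after a 1 h peptide pretreatment. Peptide stayed on before, during and after adsorption. Toxicity was checked by daily trypan-blue counts.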

HIV-1 NDK = experiment: HIV-1 infection of C8166 cells (syncytia formation, p24 ELISA) with HIV-1 NDK; set-up: key to syncitia formed, Day 4 / syncitia formed, Day 5 / syncitia formed, Day 6 / syncitia formed, Day 7: ++, +, (+), (+)− and − represent decreasing numbers of syncitia formed; ++, +, (+), (+)− and − represent decreasing numbers of syncitia formed; ++, +, (+), (+)− and − represent decreasing numbers of syncitia formed; ++, +, (+), (+)− and − represent decreasing numbers of syncitia formed; ++, +, (+), (+)− and − represent decreasing numbers of syncitia formed; details: for P 24: P 24 after Day 7
Protocol: HIV-1 NL 4-3 isolate (Adachi et al., 1986; Barré-Sinoussi et al., 1983) and highly cytopathic Zairian HIV-1 NDK isolate (Ellrodt et al., 1984) was propagated in permissive CEM cells (Nara et al., 1987). Uninfected CEM and C8166 (Salahuddin et al., 1983) were maintained in RPMI 1640 (R10) with ultraglutamine (cambrex, Vervier, Belgium), penicillin (100 U/ml), streptomycin (100 μg/ml), and 10% heat-inactivated fetal calf serum (Cambrex).
Samples of 3×10^5/100 μL C8166 cells were preincubated in 96-well microtiter plates in culture medium containing various concentrations of peptide. After a 1 h treatment at 37° C., 100 μl of diluted viral solution of HIV-1 was added. The cells were exposed to the virus for 1 h at 37° C. at a multiplicity of infection of 1000 TCID50 per ml. The cells were washed three times and cultured at 3×10^5/ml of R10 with the treatment in 24-well plates incubated at 37° C. C8166 culture medium was replaced at Day-4 post-infection. The treatment was permanent before virus adsorption, during virus adsorption and after infection. Assays on C8166 cells have been performed at least twice and in duplicate. Toxicity was evaluated by daily cell count and trypan-blue exclusion assay. Infection of C8166 T-cells with HIV-1 was assessed by virus-induced cytopathic effects (syncytia formation) and by quantification of cell free p24 viral protein in the culture supernatants. Measurements of HIV-1 p24^gag concentration in the culture supernatants were achieved by ELISA (ALLIANCE® HIV-1 p24 kit, Perkin Elmer, life sciences, USA).

HIV-1 NL 4-3 [2] = experiment: HIV-1 infection of C8166 cells (syncytia formation, p24 ELISA) with HIV-1 NL 4-3; set-up: key: ++, +, (+), (+)− and − represent decreasing numbers of syncitia formed; ++, +, (+), (+)− and − represent decreasing numbers of syncitia formed; ++, +, (+), (+)− and − represent decreasing numbers of syncitia formed; ++, +, (+), (+)− and − represent decreasing numbers of syncitia formed; ++, +, (+), (+)− and − represent decreasing numbers of syncitia formed; details: Table 6
Summary of the method: as §1

[3] = C8166 cells, HIV-1 subtype B NL 4-3, Table 9, two lines = tested twice, 8 days apart

NCC(=O)N1CCC[C@H]1C(=O)NCC(=O)O [GPG, reference compound] (H-Gly-Pro-Gly-OH)
Day 7 syncitia formed (HIV-1 NL 4-3 [1]; 0.005 μM, Table 6): ++/T | syncitia formed, Day 4 (HIV-1 NL 4-3 [1]; 0.01 μM, C8166 cells): (+) | syncitia formed, Day 5 (HIV-1 NL 4-3 [1]; 0.01 μM, C8166 cells): (+) | syncitia formed, Day 6 (HIV-1 NL 4-3 [1]; 0.01 μM, C8166 cells): + | syncitia formed, Day 7 (HIV-1 NL 4-3 [1]; 0.01 μM, Day 7, C8166 cells): ++ | P 24 (HIV-1 NL 4-3 [1]; 0.01 μM, P 24 after Day 7, C8166 cells): 9810 pg/mL and 15810 pg/mL | syncitia formed, Day 4 (HIV-1 NL 4-3 [1]; 0.1 μM, C8166 cells): − | syncitia formed, Day 5 (HIV-1 NL 4-3 [1]; 0.1 μM, C8166 cells): − | syncitia formed, Day 6 (HIV-1 NL 4-3 [1]; 0.1 μM, C8166 cells): (+) | syncitia formed, Day 7 (HIV-1 NL 4-3 [1]; 0.1 μM, Day 7, C8166 cells): + | P 24 (HIV-1 NL 4-3 [1]; 0.1 μM, P 24 after Day 7, C8166 cells): 807 pg/mL and 1506 pg/mL | syncitia formed, Day 4 (HIV-1 NL 4-3 [1]; 0.5 μM, C8166 cells): − | syncitia formed, Day 5 (HIV-1 NL 4-3 [1]; 0.5 μM, C8166 cells): − | syncitia formed, Day 6 (HIV-1 NL 4-3 [1]; 0.5 μM, C8166 cells): − and (+) | syncitia formed, Day 7 (HIV-1 NL 4-3 [1]; 0.5 μM, Day 7, C8166 cells): (+) and + | syncitia formed, Day 4 (HIV-1 NL 4-3 [1]; 1 μM, C8166 cells): − | syncitia formed, Day 5 (HIV-1 NL 4-3 [1]; 1 μM, C8166 cells): − | syncitia formed, Day 6 (HIV-1 NL 4-3 [1]; 1 μM, C8166 cells): − | syncitia formed, Day 7 (HIV-1 NL 4-3 [1]; 1 μM, Day 7, C8166 cells): (+) | P 24 (HIV-1 NL 4-3 [1]; 1 μM, P 24 after Day 7, C8166 cells): 62 pg/mL and 42 pg/mL | syncitia formed, Day 4 (HIV-1 NL 4-3 [1]; 5 μM, C8166 cells): − | syncitia formed, Day 5 (HIV-1 NL 4-3 [1]; 5 μM, C8166 cells): − | syncitia formed, Day 6 (HIV-1 NL 4-3 [1]; 5 μM, C8166 cells): − | syncitia formed, Day 7 (HIV-1 NL 4-3 [1]; 5 μM, Day 7, C8166 cells): − | IC50 (HIV-1 NL 4-3 [1]; [3]): 0.01 µM | IC100 (HIV-1 NL 4-3 [1]; [3]): 5 µM | P 24 (HIV-1 NL 4-3 [1]; Day 7, 0.005 μM, Table 6): 23810 pg/mL | P 24 (HIV-1 NL 4-3 [1]; Day 7, 0.01 μM, Table 6): 13850 pg/mL and 11756 pg/mL | P 24 (HIV-1 NL 4-3 [1]; Day 7, 0.05 μM, Table 6): 7330 pg/mL and 9810 pg/mL | P 24 (HIV-1 NL 4-3 [1]; Day 7, 1 μM, Table 6): 5.4 pg/mL and 3.8 pg/mL | syncitia formed, Day 4 (HIV-1 NDK; 0.005 μM): + | syncitia formed, Day 5 (HIV-1 NDK; 0.005 μM): + | syncitia formed, Day 6 (HIV-1 NDK; 0.005 μM): ++ | syncitia formed, Day 7 (HIV-1 NDK; 0.005 μM): ++ | P 24 (HIV-1 NDK; 0.005 μM): 23810 pg/mL | syncitia formed, Day 4 (HIV-1 NDK; 0.01 μM): + | syncitia formed, Day 5 (HIV-1 NDK; 0.01 μM): + | syncitia formed, Day 6 (HIV-1 NDK; 0.01 μM): ++ | syncitia formed, Day 7 (HIV-1 NDK; 0.01 μM): ++ | P 24 (HIV-1 NDK; 0.01 μM): 23810 pg/mL | syncitia formed, Day 4 (HIV-1 NDK; 0.05 μM): (+) | syncitia formed, Day 5 (HIV-1 NDK; 0.05 μM): + | syncitia formed, Day 6 (HIV-1 NDK; 0.05 μM): ++ | syncitia formed, Day 7 (HIV-1 NDK; 0.05 μM): ++ | P 24 (HIV-1 NDK; 0.05 μM): 23810 pg/mL | syncitia formed, Day 4 (HIV-1 NDK; 0.1 μM): − | syncitia formed, Day 5 (HIV-1 NDK; 0.1 μM): + | syncitia formed, Day 6 (HIV-1 NDK; 0.1 μM): ++ | syncitia formed, Day 7 (HIV-1 NDK; 0.1 μM): ++ | P 24 (HIV-1 NDK; 0.1 μM): 23810 pg/mL | syncitia formed, Day 4 (HIV-1 NDK; 0.5 μM): − | syncitia formed, Day 5 (HIV-1 NDK; 0.5 μM): + | syncitia formed, Day 6 (HIV-1 NDK; 0.5 μM): ++ | syncitia formed, Day 7 (HIV-1 NDK; 0.5 μM): ++ | P 24 (HIV-1 NDK; 0.5 μM): 21110 pg/mL and 23810 pg/mL | syncitia formed, Day 4 (HIV-1 NDK; 1 μM): − | syncitia formed, Day 5 (HIV-1 NDK; 1 μM): (+) | syncitia formed, Day 6 (HIV-1 NDK; 1 μM): + | syncitia formed, Day 7 (HIV-1 NDK; 1 μM): + | P 24 (HIV-1 NDK; 1 μM): 3810 pg/mL and 2507 pg/mL | syncitia formed, Day 4 (HIV-1 NDK; 5 μM): − | syncitia formed, Day 5 (HIV-1 NDK; 5 μM): − | syncitia formed, Day 6 (HIV-1 NDK; 5 μM): − | syncitia formed, Day 7 (HIV-1 NDK; 5 μM): + | P 24 (HIV-1 NDK; 5 μM): 2733 pg/mL and 2400 pg/mL | IC50 (HIV-1 NDK; HIV 1 NDK, Table 10): 0.5 µM | IC100 (HIV-1 NDK; HIV 1 NDK, Table 10): >5 µM | Day 4 syncitia formed (HIV-1 NL 4-3 [2]; 0.005 μM): − | Day 5 syncitia formed (HIV-1 NL 4-3 [2]; 0.005 μM): + | Day 6 syncitia formed (HIV-1 NL 4-3 [2]; 0.005 μM): ++ | Day 4 syncitia formed (HIV-1 NL 4-3 [2]; 0.01 μM): − | Day 5 syncitia formed (HIV-1 NL 4-3 [2]; 0.01 μM): (+) | Day 6 syncitia formed (HIV-1 NL 4-3 [2]; 0.01 μM): + | Day 7 syncitia formed (HIV-1 NL 4-3 [2]; 0.01 μM): ++ | Day 4 syncitia formed (HIV-1 NL 4-3 [2]; 0.05 μM): − | Day 5 syncitia formed (HIV-1 NL 4-3 [2]; 0.05 μM): − | Day 6 syncitia formed (HIV-1 NL 4-3 [2]; 0.05 μM): (+) | Day 7 syncitia formed (HIV-1 NL 4-3 [2]; 0.05 μM): + | Day 4 syncitia formed (HIV-1 NL 4-3 [2]; 0.1 μM): − | Day 5 syncitia formed (HIV-1 NL 4-3 [2]; 0.1 μM): − | Day 6 syncitia formed (HIV-1 NL 4-3 [2]; 0.1 μM): − | Day 7 syncitia formed (HIV-1 NL 4-3 [2]; 0.1 μM): + | Day 4 syncitia formed (HIV-1 NL 4-3 [2]; 0.5 μM): − | Day 5 syncitia formed (HIV-1 NL 4-3 [2]; 0.5 μM): − | Day 6 syncitia formed (HIV-1 NL 4-3 [2]; 0.5 μM): − | Day 7 syncitia formed (HIV-1 NL 4-3 [2]; 0.5 μM): − | Day 4 syncitia formed (HIV-1 NL 4-3 [2]; 1 μM): − | Day 5 syncitia formed (HIV-1 NL 4-3 [2]; 1 μM): − | Day 6 syncitia formed (HIV-1 NL 4-3 [2]; 1 μM): − | Day 7 syncitia formed (HIV-1 NL 4-3 [2]; 1 μM): − | Day 4 syncitia formed (HIV-1 NL 4-3 [2]; 5 μM): − | Day 5 syncitia formed (HIV-1 NL 4-3 [2]; 5 μM): − | Day 6 syncitia formed (HIV-1 NL 4-3 [2]; 5 μM): − | Day 7 syncitia formed (HIV-1 NL 4-3 [2]; 5 μM): −

From patent US20060229433A1, “Modified antiviral peptides with increased activity and cell membrane affinity” (priority 2003, published 2006)
